This is an account of results in ChEMBL document CHEMBL1201862, “PubChem BioAssay data set” (2004).

Among the test systems are UACC-62; SK-MEL-2; SNB-19; OVCAR-4; RXF 393; OVCAR-8; Malme-3M; SW-620; CCRF-CEM; SK-MEL-5; HCC 2998; SN12C; NCI-H23; PC-3; TK-10; MDA-N; COLO 205; SK-OV-3; DU-145; MDA-MB-231.
What all share (assay): NCI tumour cell line growth inhibition, 48 h

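Five compound concentrations were applied to cells in 96-well plates for 48 hours; endpoints were derived by simple linear interpolation of the resulting dose-response curve. GI50 is the concentration that inhibits growth by half.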 Activity calls are given as the source filed them. No stated cut-off is given here; in the data, active = GI50 up to about 1.1 µM and inactive = higher. Some results are limits rather than exact numbers.

With `Cc1ccc(O)c(C2=CC(c3cccc(Cl)c3)SC(=N)N2)c1` (stereo not given), the GI50 in the assay on UACC-62 is 13.7 µM (inactive); in the assay with SK-MEL-2, 18.2 µM (inactive); in the assay on SNB-19, 16.1 µM (inactive); with OVCAR-4 it was 1.77 µM (inactive); in the assay with RXF 393 it was 23.1 µM (inactive); with OVCAR-8, 37.8 µM (inactive). The GI50 in the assay with Malme-3M was 24.2 µM (inactive); in the assay on SW-620 it was 24.4 µM (inactive); with CCRF-CEM it was 20.1 µM (inactive); with SK-MEL-5, 16.1 µM (inactive); with HCC 2998, 16.1 µM (inactive); with SN12C, 16.9 µM (inactive). Besides, the GI50 with NCI-H23 is 26.6 µM (inactive); with PC-3, 16.6 µM (inactive); in the assay with TK-10, 22.4 µM (inactive); with MDA-N, 18.8 µM (inactive); in the assay on COLO 205, 16.9 µM (inactive); in the assay with SK-OV-3, 26.4 µM (inactive). Further, in the assay with DU-145, the GI50 is 46.5 µM (inactive).

Consider `CC(C)SC(C)(NC(=O)C1C(C)(C)CCC1(C)C)C(=O)O` (stereo not given), for which the GI50 with SK-MEL-2, in the assay with SNB-19, in the assay on MDA-MB-231, with SW-620, in the assay on CCRF-CEM and with SK-MEL-5 was > 100 µM (inactive) each time. Moreover, the GI50 in the assay with HCC 2998, in the assay on SN12C, in the assay with NCI-H23, in the assay with PC-3, in the assay on TK-10 and with MDA-N was > 100 µM (inactive) each time. Also, the GI50 with COLO 205, in the assay with SK-OV-3 and in the assay with DU-145 was > 100 µM (inactive) each time.

Consider `CCCCc1ccc2[n+](c1)C(C(=O)OCC)=PC2` (stereo not given), for which the GI50 with UACC-62 is > 100 µM (inactive); in the assay with OVCAR-4, > 100 µM (inactive); in the assay on RXF 393 it was 31.9 µM (inactive); with OVCAR-8, > 100 µM (inactive); in the assay with Malme-3M, > 100 µM (inactive); in the assay on SW-620, > 100 µM (inactive). Besides, the GI50 in the assay on CCRF-CEM was 42.4 µM (inactive); in the assay on SK-MEL-5 it was > 100 µM (inactive); in the assay with HCC 2998 it was > 100 µM (inactive); with SN12C, > 100 µM (inactive); in the assay on NCI-H23, 86.1 µM (inactive); in the assay with PC-3 it was > 100 µM (inactive). The GI50 in the assay with TK-10 is > 100 µM (inactive); in the assay on MDA-N, 56.9 µM (inactive); in the assay with COLO 205, > 100 µM (inactive); with SK-OV-3, > 100 µM (inactive); in the assay on DU-145, > 100 µM (inactive).

Turning to `O=c1c(NO)c([N+](=O)[O-])cnn1-c1ccccc1`, the GI50 with UACC-62 is 4.2 µM (inactive); in the assay on SK-MEL-2 it was 14.9 µM (inactive); in the assay on SNB-19 it was 10.9 µM (inactive); in the assay with OVCAR-4 it was 3.81 µM (inactive); with RXF 393 it was 5.92 µM (inactive); in the assay on OVCAR-8 it was 2.63 µM (inactive). Moreover, the GI50 in the assay with Malme-3M was 4.6 µM (inactive); in the assay with SW-620, 1.75 µM (inactive); in the assay with CCRF-CEM it was 0.971 µM (active); in the assay with SK-MEL-5, 6 µM (inactive); in the assay on HCC 2998, 5.47 µM (inactive); with SN12C, 3.08 µM (inactive). The GI50 was 6.55 µM (inactive) in the assay on NCI-H23; 1.55 µM (inactive) in the assay on PC-3; 18.4 µM (inactive) in the assay on TK-10; 2.29 µM (inactive) with MDA-N; 3.62 µM (inactive) in the assay on COLO 205; 7.01 µM (inactive) in the assay on SK-OV-3. Further, the GI50 with DU-145 is 13.8 µM (inactive).
